# How the values were obtained:
# POLCO = experiment: C. Herbicidal pre-emergence action, weed and crop plants (Tables C); format: in vivo, Polygonum convolvulus; conditions: application rate 320 g/ha; Table C9
# Description: Seeds of mono- and dicotyledonous weed plants and crop plants were sown, in plastic or organic planting pots, in sandy loam and covered with soil. The compounds according to the invention, formulated in the form of wettable powders (WP) or as emulsifiable concentrates (EC), were applied to the surface of the covering soil as aqueous suspension or emulsion, with the addition of 0.5% of an additive, at an application rate of 6001 of water/ha (converted). Following treatment, the pots were placed in a greenhouse and kept under optimum growth conditions for the test plants. The visual grading of the damage to the test plants was carried out after ca. 3 weeks in comparison to untreated controls (herbicidal effect in percent (%): 100% effect = plants have died off, 0% effect = as control plants). Tables C1 to C12 below show the effects of selected compounds of the general formula (I) according to table 1 on various harmful plants and an application rate corresponding to 320 g/ha or below obtained by the experimental procedure mentioned above. Table C1: pre-emergence activity at 320g/ha against KCHSC in %
# MATIN [1] = experiment: E. Herbicidal post-emergence action, weed and crop plants (Tables E); format: in vivo, Matricaria inodora; conditions: application rate 320 g/ha, visual assessment after ca. 3 weeks
# Description: (§1) Seeds of mono- and dicotyledonous weed plants and crop plants were sown, in plastic or organic planting pots, in sandy loam, covered with soil and grown in a greenhouse under controlled growth conditions. 2 to 3 weeks after sowing, the test plants were sprayed in the single-leaf stage. The compounds according to the invention, formulated in form of wettable powders (WP) or as emulsifiable concentrates (EC), were sprayed onto the green plant parts as aqueous suspension or emulsion, with the addition of 0.5% of an additive, at an application rate of 6001 of water/ha (converted). The test plants were placed in the greenhouse for ca. 3 weeks under optimum growth conditions, and then the effect of the preparations was assessed visually in comparison with untreated controls (herbicidal effect in percent (%): 100% effect = plants have died off, 0% effect = as control plants). Tables E1 to E7 below show the effects of selected compounds of the general formula (I) according to table 1 on various harmful plants and an application rate corresponding to 320 g/ha or below obtained by the experimental procedure mentioned above. Table E1: post-emergence activity at 320g/ha against ALOMY in %
# MATIN [2] = experiment: B. Herbicidal post-emergence action on harmful plants (Tables B); format: in vivo, Matricaria inodora; conditions: application rate 1280 g/ha; Table B4a
# Method in brief: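 Activity was scored visually as % damage (100% = dead, 0% = like untreated) about 3 weeks after treatment. Plants at the one-leaf stage, 2-3 weeks old, were sprayed with WP/EC formulations plus 0.5% additive (600 L/ha water, up to 1280 g/ha). Plants were grown in sandy loam in a greenhouse.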
# ABUTH = experiment: A. Herbicidal pre-emergence action on harmful plants (Tables A); format: in vivo, Abutilon theophrasti; conditions: application rate 1280 g/ha; visual grading after ca. 3 weeks vs untreated controls; 100% = plants have died off, 0% = as control plants
# Description: Seeds of mono- and dicotyledonous weed plants were sown in plastic pots (double sowings with one species of mono- and one species of dicotyledonous weed plants per pot), in sandy loam, and covered with soil. The compounds according to the invention, formulated in the form of wettable powders (WP) or as emulsifiable concentrates (EC), were applied to the surface of the covering soil as aqueous suspension or emulsion, with the addition of 0.5% of an additive, at an application rate of 6001 of water per hectare (converted). Following treatment, the pots were placed in a greenhouse and kept under optimum growth conditions for the test plants. The visual grading of the damage to the test plants was carried out after ca. 3 weeks in comparison to untreated controls (herbicidal effect in percent (%): 100% effect = plants have died off, 0% effect = as control plants). Tables A1 to A12, below, show the effects of selected compounds of the general formula (I) according to table 1 on various harmful plants and an application rate corresponding to 1280 g/ha or below obtained by the experimental procedure mentioned above. Table A1: pre-emergence activity at 1280g/ha against ABUTH in %
# VERPE = experiment: E. Herbicidal post-emergence action, weed and crop plants (Tables E); format: in vivo, Veronica persica; conditions: application rate 320 g/ha, visual assessment after ca. 3 weeks
# Description: as §1
compound,measurement,setting,value
C=C(c1ccccc1F)C1CCCN1C(=O)c1cn(C)nc1COC (racemic) [Example I-023],pre-emergence activity against POLCO,POLCO,80%
COCc1c(C(=O)N2CCCC2Cc2ccccc2Cl)cnn1C (racemic) [Example I-170],post-emergence activity against MATIN in %,MATIN [1],80%
same,post-emergence activity against MATIN,MATIN [2],90%
same,pre-emergence activity against ABUTH,ABUTH,90%
"COCc1nn(C)cc1C(=O)N1CCCC1Cc1ccccc1F (single isomer, unassigned) [Example I-003]",post-emergence activity against VERPE in %,VERPE,80%
